The values below are quoted from earlier work in patent US20150148324A1 (VALPHARMA INTERNATIONAL S.P.A., priority 2012, published 2015).

For this data set, the system named is uterine fibroma. Particulars: daily oral 5 mg for 6 months, versus higher doses.

Regarding `CC#C[C@]1(O)CC[C@H]2[C@@H]3CCC4=CC(=O)CCC4=C3[C@@H](c3ccc(N(C)C)cc3)C[C@@]21C` [Mifepristone], the “effect in the treatment of uterine fibroma” value is “effects comparable with those of higher doses of Mifepristone”.
